From ChEMBL document CHEMBL5465560, “Selectivity Literature for EUbOPEN Chemogenomic Library” (2024)
One block for each compound: values may come before it.

Experiments:
[1] = target: T1, Dual specificity mitogen-activated protein kinase kinase 3 (Homo sapiens) (UniProt P46734); experiment: Selectivity interaction (ActivX KiNativ screen (kinase selectivity in THP-1 cell lysates)) EUB0000639a MAP2K3; type: subcellular; conditions: lysate, at 0.2 µM
T1 sequence (whole entry): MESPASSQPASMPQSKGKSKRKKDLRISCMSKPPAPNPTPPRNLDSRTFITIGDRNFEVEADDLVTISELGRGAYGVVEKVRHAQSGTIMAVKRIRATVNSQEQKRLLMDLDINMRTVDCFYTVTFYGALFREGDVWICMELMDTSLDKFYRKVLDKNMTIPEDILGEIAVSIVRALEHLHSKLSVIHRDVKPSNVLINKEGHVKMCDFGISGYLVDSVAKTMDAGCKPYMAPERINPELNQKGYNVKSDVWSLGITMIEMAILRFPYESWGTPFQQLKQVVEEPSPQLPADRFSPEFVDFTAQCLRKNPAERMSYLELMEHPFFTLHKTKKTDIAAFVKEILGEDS

[2] = target: T2, Serine/threonine-protein kinase Sgk3 (Homo sapiens) (UniProt Q96BR1); experiment: Selectivity interaction (Kinase panel (Invitrogen)) EUB0000639a SGK3; conditions: at 200 nM
T2 sequence (whole entry): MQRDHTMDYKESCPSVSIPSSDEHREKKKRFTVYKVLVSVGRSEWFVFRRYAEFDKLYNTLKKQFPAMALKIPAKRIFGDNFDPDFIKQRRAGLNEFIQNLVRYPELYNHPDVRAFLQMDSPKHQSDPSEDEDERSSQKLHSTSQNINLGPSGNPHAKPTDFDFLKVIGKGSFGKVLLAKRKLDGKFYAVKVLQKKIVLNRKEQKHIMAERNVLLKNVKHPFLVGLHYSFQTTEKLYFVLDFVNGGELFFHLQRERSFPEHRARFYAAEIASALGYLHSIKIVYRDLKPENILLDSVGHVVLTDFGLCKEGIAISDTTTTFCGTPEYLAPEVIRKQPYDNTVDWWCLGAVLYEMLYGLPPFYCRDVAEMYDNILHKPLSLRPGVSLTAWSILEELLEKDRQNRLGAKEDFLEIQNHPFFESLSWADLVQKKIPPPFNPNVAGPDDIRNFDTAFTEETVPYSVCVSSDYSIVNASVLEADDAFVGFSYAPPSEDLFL

[3] = target: Mitogen-activated protein kinase kinase kinase 9 (Homo sapiens) (UniProt P80192); experiment: Selectivity interaction (KinomeScan (DiscoverX)) EUB0000229b MAP3K9; conditions: at 10 µM
[4] = target: Wee1-like protein kinase (Homo sapiens) (UniProt P30291); experiment: Selectivity interaction (KinomeScan (DiscoverX)) EUB0000655a WEE1; conditions: at 10 µM
[5] = target: T3, Hormonally up-regulated neu tumor-associated kinase (Homo sapiens) (UniProt P57058); experiment: Selectivity interaction (KinomeScan (DiscoverX)) EUB0000655a HUNK; conditions: at 10 µM
T3 sequence (whole entry): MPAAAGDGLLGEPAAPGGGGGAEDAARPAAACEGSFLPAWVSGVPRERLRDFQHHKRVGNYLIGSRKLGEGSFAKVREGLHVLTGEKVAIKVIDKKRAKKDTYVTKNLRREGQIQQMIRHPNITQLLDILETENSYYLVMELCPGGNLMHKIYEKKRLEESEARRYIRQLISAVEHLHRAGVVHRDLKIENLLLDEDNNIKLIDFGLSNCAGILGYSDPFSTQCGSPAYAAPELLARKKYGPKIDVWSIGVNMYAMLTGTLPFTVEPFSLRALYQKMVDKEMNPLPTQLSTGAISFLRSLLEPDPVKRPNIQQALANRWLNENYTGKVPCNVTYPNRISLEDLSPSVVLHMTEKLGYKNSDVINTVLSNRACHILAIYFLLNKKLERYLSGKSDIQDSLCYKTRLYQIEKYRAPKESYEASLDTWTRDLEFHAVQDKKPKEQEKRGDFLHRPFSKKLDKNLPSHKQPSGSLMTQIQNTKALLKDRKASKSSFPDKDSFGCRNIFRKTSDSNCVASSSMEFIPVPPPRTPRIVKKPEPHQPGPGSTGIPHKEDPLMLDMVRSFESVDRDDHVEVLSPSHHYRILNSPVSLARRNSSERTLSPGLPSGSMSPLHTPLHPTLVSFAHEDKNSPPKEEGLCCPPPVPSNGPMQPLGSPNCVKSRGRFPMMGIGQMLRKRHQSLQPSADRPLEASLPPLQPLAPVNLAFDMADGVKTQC

[6] = target: T4, G protein-coupled receptor kinase 3 (Homo sapiens) (UniProt P35626); experiment: Selectivity interaction (SelectScreen profiling (Invitrogen)) EUB0000607a ADRBK2; conditions: at 2 µM
T4 sequence (whole entry): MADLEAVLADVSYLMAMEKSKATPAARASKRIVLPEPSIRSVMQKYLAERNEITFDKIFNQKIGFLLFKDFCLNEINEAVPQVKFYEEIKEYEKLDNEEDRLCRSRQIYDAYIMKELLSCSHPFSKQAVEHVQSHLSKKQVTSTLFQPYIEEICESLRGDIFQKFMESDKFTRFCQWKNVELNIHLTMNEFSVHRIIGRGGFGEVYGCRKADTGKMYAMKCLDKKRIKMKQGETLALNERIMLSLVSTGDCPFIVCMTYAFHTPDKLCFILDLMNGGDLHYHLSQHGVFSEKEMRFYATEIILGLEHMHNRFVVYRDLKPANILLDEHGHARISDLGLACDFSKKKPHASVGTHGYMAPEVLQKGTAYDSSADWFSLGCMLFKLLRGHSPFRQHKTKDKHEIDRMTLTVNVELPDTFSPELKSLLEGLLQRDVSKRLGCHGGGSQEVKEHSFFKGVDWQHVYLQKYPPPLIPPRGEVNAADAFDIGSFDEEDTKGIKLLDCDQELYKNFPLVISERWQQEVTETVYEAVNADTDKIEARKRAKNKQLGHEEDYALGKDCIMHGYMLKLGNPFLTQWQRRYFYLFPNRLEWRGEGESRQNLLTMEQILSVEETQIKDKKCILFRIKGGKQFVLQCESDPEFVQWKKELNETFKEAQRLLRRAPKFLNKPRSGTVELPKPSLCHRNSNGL

[7] = target: Cyclin-dependent kinase 7 (Homo sapiens, UniProt P50613); experiment: Selectivity interaction (Kinase panel (KiNativ target engagement assay in Jurkat cells)) EUB0001635a CDK7; type: cell-based; conditions: Selectivity number of off-targets 0.0, Selectivity number of targets 233.0, Source Knowledge https://www.sciencedirect.com/science/article/pii/S2451945619300674?via%3Dihub, at 1 µM
Chain of Cyclin-dependent kinase 7 (P50613 whole entry): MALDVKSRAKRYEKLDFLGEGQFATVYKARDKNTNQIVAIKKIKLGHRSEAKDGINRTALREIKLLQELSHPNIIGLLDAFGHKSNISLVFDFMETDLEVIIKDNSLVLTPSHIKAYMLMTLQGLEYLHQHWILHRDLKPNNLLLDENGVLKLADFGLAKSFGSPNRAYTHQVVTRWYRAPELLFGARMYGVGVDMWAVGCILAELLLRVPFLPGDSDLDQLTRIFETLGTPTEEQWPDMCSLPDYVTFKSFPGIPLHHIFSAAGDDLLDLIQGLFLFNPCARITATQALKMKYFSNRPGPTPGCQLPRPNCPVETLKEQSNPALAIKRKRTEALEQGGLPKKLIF

Chain of Wee1-like protein kinase (Homo sapiens) (P30291 whole entry, looked up): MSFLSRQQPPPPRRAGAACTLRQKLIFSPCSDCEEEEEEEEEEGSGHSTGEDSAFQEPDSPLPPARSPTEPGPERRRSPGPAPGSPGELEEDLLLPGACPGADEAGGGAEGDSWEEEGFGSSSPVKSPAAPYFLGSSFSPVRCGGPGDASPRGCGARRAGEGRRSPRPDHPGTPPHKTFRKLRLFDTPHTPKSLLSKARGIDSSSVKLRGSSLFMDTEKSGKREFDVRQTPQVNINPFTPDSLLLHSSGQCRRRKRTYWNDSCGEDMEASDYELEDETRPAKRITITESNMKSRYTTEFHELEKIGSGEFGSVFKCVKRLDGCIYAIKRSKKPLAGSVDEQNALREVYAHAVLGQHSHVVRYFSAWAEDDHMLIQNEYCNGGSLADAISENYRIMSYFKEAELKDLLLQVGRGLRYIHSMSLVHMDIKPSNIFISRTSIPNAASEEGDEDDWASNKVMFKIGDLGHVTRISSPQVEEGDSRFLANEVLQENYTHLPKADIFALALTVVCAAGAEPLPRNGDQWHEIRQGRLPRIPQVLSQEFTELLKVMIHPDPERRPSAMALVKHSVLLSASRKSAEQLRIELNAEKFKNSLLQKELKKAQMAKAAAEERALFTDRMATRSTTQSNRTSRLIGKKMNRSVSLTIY
Chain of Mitogen-activated protein kinase kinase kinase 9 (Homo sapiens) (P80192 whole entry, looked up): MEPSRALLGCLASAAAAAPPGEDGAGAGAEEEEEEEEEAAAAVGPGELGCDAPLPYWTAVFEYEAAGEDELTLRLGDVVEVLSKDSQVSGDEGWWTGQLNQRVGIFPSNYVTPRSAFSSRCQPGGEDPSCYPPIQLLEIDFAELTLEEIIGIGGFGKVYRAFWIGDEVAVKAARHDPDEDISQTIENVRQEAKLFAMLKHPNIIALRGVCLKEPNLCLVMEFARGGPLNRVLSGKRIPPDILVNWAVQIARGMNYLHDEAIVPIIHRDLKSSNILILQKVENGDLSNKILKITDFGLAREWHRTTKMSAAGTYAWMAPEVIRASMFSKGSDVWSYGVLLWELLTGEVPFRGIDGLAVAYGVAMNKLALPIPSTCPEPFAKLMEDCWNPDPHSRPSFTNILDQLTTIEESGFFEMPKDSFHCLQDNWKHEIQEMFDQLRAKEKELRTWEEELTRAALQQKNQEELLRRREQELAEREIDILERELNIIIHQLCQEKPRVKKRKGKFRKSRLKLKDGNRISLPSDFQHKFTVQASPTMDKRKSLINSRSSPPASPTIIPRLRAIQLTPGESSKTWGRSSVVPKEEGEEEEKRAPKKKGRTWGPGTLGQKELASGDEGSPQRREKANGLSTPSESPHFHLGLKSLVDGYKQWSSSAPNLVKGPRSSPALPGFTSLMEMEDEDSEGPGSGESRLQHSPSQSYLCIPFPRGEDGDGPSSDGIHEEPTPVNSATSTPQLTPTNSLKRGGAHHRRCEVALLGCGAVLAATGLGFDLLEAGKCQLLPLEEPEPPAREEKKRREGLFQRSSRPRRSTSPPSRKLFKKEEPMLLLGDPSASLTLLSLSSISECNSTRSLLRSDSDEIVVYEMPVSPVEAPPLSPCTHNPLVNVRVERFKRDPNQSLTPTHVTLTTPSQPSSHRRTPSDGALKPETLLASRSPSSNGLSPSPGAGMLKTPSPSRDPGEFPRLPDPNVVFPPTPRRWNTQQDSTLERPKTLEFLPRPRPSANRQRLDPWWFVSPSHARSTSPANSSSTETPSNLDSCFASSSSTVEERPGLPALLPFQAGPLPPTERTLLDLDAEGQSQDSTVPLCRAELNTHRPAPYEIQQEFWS

- % of inhibition [1]: -70.7%
- % of inhibition [2]: 1.19%
SMILES: CC[C@@H]1[C@H](F)C(=O)N[C@@H]1COc1nccc2cc(C(N)=O)c(OC)cc12 [ZIMLOVISERTIB]

SMILES: COc1cc(N(C)c2ccnc3ccc(C(F)(F)F)cc23)cc(OC)c1OC
- % binding [3]: 88%

SMILES: CN(C)CCOc1ccc(-c2nc(-c3ccncc3)c(-c3ccc4c(c3)CC/C4=N\O)[nH]2)cc1
- % of control [4]: 100%
- % of control [5]: 84%

SMILES: CNC(=O)Nc1ccc(-c2nc(N3CC4CCC(C3)O4)c3cnn(C4CCC5(CC4)OCCO5)c3n2)cc1
- % of inhibition [6]: -3%

SMILES: C=CC(=O)Nc1ccc(C(=O)Nc2[nH]nc3c2CN(C(=O)N[C@H](CN(C)C)c2ccccc2)C3(C)C)cc1
- % of engagement [7]: 93.3%
